These results are taken from ChEMBL document CHEMBL1201862, “PubChem BioAssay data set” (2004).

Among the test systems are UO-31; SN12C; SK-MEL-28; EKVX; MOLT-4; UACC-62; ACHN; MDA-N; SK-MEL-2; HOP-62; K562; OVCAR-3; OVCAR-4; PC-3; A498; CCRF-CEM; MCF7; SF-539; NCI-H522; LOX IMVI.
What all share (test): inhibition of tumour cell growth, NCI panel, 48 h

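Growth conditions: 96-well plates. Treatment: test compound, 48 hours, 5 concentrations. Analysis: linear interpolation between bracketing concentrations; unreached endpoints set to highest concentration. GI50 = concentration required for 50% inhibition of growth.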 Calls of active or inactive are those of the source. No stated cut-off is given here; in the data, active = GI50 up to about 1.1 µM and inactive = higher.

With `Cc1cc(S(=O)(=O)Nc2nc(N)n(-c3ccccc3)n2)c(S)cc1Cl`, the GI50 in the experiment on UO-31, in the experiment on SN12C, in the experiment with SK-MEL-28, with EKVX, in the experiment with MOLT-4 and with UACC-62 was > 100 µM (inactive) in each case. For the same molecule, the GI50 in the experiment with ACHN, with MDA-N, with SK-MEL-2, with HOP-62, in the experiment on K562 and with OVCAR-3 was > 100 µM (inactive) throughout. The GI50 was > 100 µM (inactive) in the experiment on OVCAR-4; > 100 µM (inactive) in the experiment with PC-3; > 100 µM (inactive) in the experiment on A498; > 100 µM (inactive) in the experiment with CCRF-CEM; > 100 µM (inactive) with MCF7; 86.3 µM (inactive) in the experiment with SF-539. Also, the GI50 with NCI-H522 and in the experiment on LOX IMVI was > 100 µM (inactive) throughout.
Regarding `N/C(=N\O)N/N=C/c1cc(I)cc(I)c1O`, the GI50 is 28.8 µM (inactive) in the experiment on SN12C; 49.2 µM (inactive) with SK-MEL-28; 58.3 µM (inactive) with EKVX; > 100 µM (inactive) in the experiment on MOLT-4; 31.9 µM (inactive) in the experiment on UACC-62; 24.1 µM (inactive) with ACHN. The GI50 was 82.6 µM (inactive) in the experiment with MDA-N; 54.8 µM (inactive) with SK-MEL-2; 42.3 µM (inactive) in the experiment on HOP-62; 43.2 µM (inactive) in the experiment on K562; 2.2 µM (inactive) in the experiment with OVCAR-3; 27.6 µM (inactive) with OVCAR-4. The GI50 with PC-3 is 37.2 µM (inactive); in the experiment on A498 it was > 100 µM (inactive); in the experiment on CCRF-CEM, 7.89 µM (inactive); in the experiment with MCF7, 10 µM (inactive); in the experiment with SF-539, 29.7 µM (inactive); in the experiment on NCI-H522, 80.5 µM (inactive). Also, the GI50 in the experiment on LOX IMVI was 25.4 µM (inactive).
With `CCOC(=O)/C(C(=O)Nc1ccc(F)cc1)=C(/N)N1CCCC1`, the GI50 in the experiment on SN12C, in the experiment on SK-MEL-28, in the experiment on EKVX, in the experiment with MOLT-4, in the experiment on UACC-62 and in the experiment with ACHN was > 100 µM (inactive) in each case. Also, the GI50 with MDA-N, in the experiment with SK-MEL-2, with HOP-62, with K562, with OVCAR-3 and with OVCAR-4 was > 100 µM (inactive) in each case. For the same molecule, the GI50 in the experiment with PC-3, in the experiment with A498, in the experiment on CCRF-CEM, in the experiment with MCF7, in the experiment with SF-539 and in the experiment on NCI-H522 was > 100 µM (inactive) throughout. Moreover, the GI50 in the experiment on LOX IMVI was > 100 µM (inactive).
As to `CC(C)=CCC/C(C)=C/Cc1cc(/C=C/c2cc(O)c(CC=C(C)C)c(O)c2)cc(O)c1O` [MAPPAIN], the GI50 in the experiment on UO-31 was 1.29 µM (inactive); in the experiment with SN12C, 1.95 µM (inactive); in the experiment with SK-MEL-28 it was 5.18 µM (inactive); in the experiment on EKVX, 2.96 µM (inactive); in the experiment on MOLT-4, 1.93 µM (inactive); in the experiment on UACC-62, 2.7 µM (inactive). Moreover, the GI50 in the experiment on ACHN was 1.48 µM (inactive); in the experiment with MDA-N, 2.41 µM (inactive); with SK-MEL-2 it was 2.77 µM (inactive); with HOP-62, 11.4 µM (inactive); with K562, 2.49 µM (inactive); with OVCAR-3, 1.99 µM (inactive). The GI50 in the experiment on OVCAR-4 was 1.94 µM (inactive); in the experiment with PC-3 it was 3.36 µM (inactive); with A498, 6.56 µM (inactive); with MCF7, 3.45 µM (inactive); in the experiment on SF-539 it was 3.79 µM (inactive); with NCI-H522, 0.141 µM (active). Also, the GI50 in the experiment on LOX IMVI is 2.31 µM (inactive).
`O=c1[nH]/c(=C/c2ccc(OCc3ccccc3)cn2)c(=O)[nH]/c1=C/c1ccc([N+](=O)[O-])cc1`: the GI50 in the experiment on UO-31 is > 100 µM (inactive); in the experiment on SN12C, > 100 µM (inactive); with SK-MEL-28 it was > 100 µM (inactive); in the experiment on EKVX, > 100 µM (inactive); in the experiment on MOLT-4, > 63.1 µM (inactive); with UACC-62, > 100 µM (inactive). Further, the GI50 in the experiment on ACHN was > 94.6 µM (inactive); in the experiment with MDA-N, > 100 µM (inactive); with SK-MEL-2 it was > 100 µM (inactive); in the experiment with HOP-62 it was 55.1 µM (inactive); in the experiment on K562, > 100 µM (inactive); with OVCAR-3, > 100 µM (inactive). Besides, the GI50 in the experiment on OVCAR-4 is > 100 µM (inactive); in the experiment with PC-3 it was > 100 µM (inactive); in the experiment with A498 it was 43 µM (inactive); in the experiment with CCRF-CEM it was > 100 µM (inactive); with MCF7, > 100 µM (inactive); in the experiment with SF-539 it was > 61.4 µM (inactive). Also, the GI50 in the experiment with NCI-H522 and in the experiment on LOX IMVI was > 100 µM (inactive) throughout.
Regarding `O=c1c2ncn(CCCl)c2n(-c2ccccc2)c(=S)n1-c1ccccc1`, the GI50 in the experiment on UO-31 was 99.5 µM (inactive); with SN12C it was > 100 µM (inactive); with SK-MEL-28 it was > 100 µM (inactive); in the experiment with EKVX, > 100 µM (inactive); in the experiment with MOLT-4, > 100 µM (inactive); in the experiment on UACC-62 it was > 100 µM (inactive). The GI50 was > 100 µM (inactive) in the experiment with ACHN; > 100 µM (inactive) with MDA-N; > 100 µM (inactive) in the experiment with SK-MEL-2; > 100 µM (inactive) in the experiment with HOP-62; 86.9 µM (inactive) with K562; > 100 µM (inactive) with OVCAR-3. Besides, the GI50 with OVCAR-4, with PC-3, in the experiment on A498, in the experiment with CCRF-CEM, in the experiment with MCF7 and in the experiment on SF-539 was > 100 µM (inactive) throughout. Further, the GI50 in the experiment with NCI-H522 and with LOX IMVI was > 100 µM (inactive) throughout.
Regarding `CN1C(=O)N(C)C(O)C(Cl)(Br)C1=O` (configuration not stated), the GI50 with UO-31, with SN12C, with SK-MEL-28, with EKVX, with MOLT-4 and with UACC-62 was > 100 µM (inactive) throughout. Besides, the GI50 in the experiment with ACHN, with MDA-N, in the experiment on SK-MEL-2, with K562, in the experiment with OVCAR-3 and in the experiment with PC-3 was > 100 µM (inactive) in each case. Also, the GI50 in the experiment on A498, in the experiment on CCRF-CEM, with MCF7, in the experiment on SF-539, with NCI-H522 and in the experiment with LOX IMVI was > 100 µM (inactive) throughout.
Consider `CCCCC1C(=O)N(c2ccc(S(=O)(=O)Nc3ccccn3)cc2)N(c2ccc(O)c(C(=O)O)c2)C1=O` (configuration not stated), for which the GI50 in the experiment on UO-31, in the experiment with SN12C, in the experiment on SK-MEL-28, in the experiment on EKVX, in the experiment on MOLT-4 and in the experiment with UACC-62 was > 100 µM (inactive) throughout. Moreover, the GI50 in the experiment with ACHN, with MDA-N, in the experiment on SK-MEL-2, in the experiment with K562, in the experiment on OVCAR-3 and with OVCAR-4 was > 100 µM (inactive) throughout. Further, the GI50 in the experiment on PC-3, in the experiment with A498, with CCRF-CEM, in the experiment on MCF7, in the experiment with SF-539 and in the experiment with NCI-H522 was > 100 µM (inactive) each time. The GI50 in the experiment with LOX IMVI was > 100 µM (inactive).
For the molecule `COc1ccc(-n2c(N)c(C#N)c(C#N)c2-c2ccco2)cc1`, the GI50 in the experiment on UO-31 was 82.8 µM (inactive); with SN12C, > 100 µM (inactive); with EKVX it was 5.01 µM (inactive); in the experiment with MOLT-4 it was 46.7 µM (inactive); in the experiment with UACC-62, 38.5 µM (inactive); with ACHN it was > 100 µM (inactive). Further, the GI50 with MDA-N is 45.5 µM (inactive); in the experiment on SK-MEL-2, > 100 µM (inactive); in the experiment on HOP-62, 72.1 µM (inactive); in the experiment on K562, 59.7 µM (inactive); in the experiment with OVCAR-3 it was > 100 µM (inactive); in the experiment with OVCAR-4 it was 23.3 µM (inactive). Also, the GI50 is 46.3 µM (inactive) in the experiment with PC-3; > 100 µM (inactive) in the experiment on A498; > 100 µM (inactive) with CCRF-CEM; > 100 µM (inactive) with MCF7; > 100 µM (inactive) with SF-539; 46.7 µM (inactive) in the experiment with NCI-H522. Also, the GI50 in the experiment with LOX IMVI was > 100 µM (inactive).
In the case of `CCC(C#N)N(Cc1ccc(CN(C(=O)c2ccccc2)C(C#N)CC)cc1)C(=O)c1ccccc1` (configuration not stated), the GI50 in the experiment with UO-31 was 19.7 µM (inactive); in the experiment on SN12C, 27.1 µM (inactive); in the experiment on EKVX it was 22.8 µM (inactive); in the experiment with MOLT-4, 15.8 µM (inactive); in the experiment with UACC-62 it was 12.1 µM (inactive); with ACHN, 26.4 µM (inactive). The GI50 was 32.4 µM (inactive) in the experiment with MDA-N; 21.7 µM (inactive) with SK-MEL-2; 20.9 µM (inactive) in the experiment with HOP-62; 13.9 µM (inactive) with K562; 16.7 µM (inactive) with OVCAR-3; 17.4 µM (inactive) in the experiment with OVCAR-4. In addition, the GI50 with PC-3 is 26 µM (inactive); with A498 it was 18.8 µM (inactive); with CCRF-CEM, 17.8 µM (inactive); with MCF7 it was 19.2 µM (inactive); in the experiment on SF-539, 18.6 µM (inactive); in the experiment with NCI-H522, 23 µM (inactive). In addition, the GI50 in the experiment with LOX IMVI was 15.9 µM (inactive).
